Measurements as given in the supplement of paper PMC10307832.

Key:
Test in all cases: relative viability (nuclei count vs DMSO), 5 days (fraction); higher = more cells survive
[1] = compound: CC1=CC(=CC=C1)NC2=NC(=CS2)C3=CC=NC=C3 + CS(=O)(=O)CCNCc1ccc(-c2ccc3ncnc(Nc4ccc(OCc5cccc(F)c5)c(Cl)c4)c3c2)o1 [Lapatinib] (partner 2 µM)
In short: (§1)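 Lung cancer cell lines were seeded in 1536-well plates and dosed by pin tool the next day, with either a single drug or a fixed anchor-drug dose combined with five library-drug doses (not always all listed) spaced in √10 steps. Five days later, one step fixed the cells and stained their nuclei (final 0.05% Triton X-100, 1% formaldehyde, 1 ug/ml Hoechst), and nuclei were counted on 4× images. Relative viability is the nuclei count in treated wells divided by the count in vehicle wells, and each value is the median of duplicate plates.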

Masitinib + Tozasertib = compound: Cc1ccc(NC(=O)c2ccc(CN3CCN(C)CC3)cc2)cc1Nc1nc(-c2cccnc2)cs1 [Masitinib] + Cc1cc(Nc2cc(N3CCN(C)CC3)nc(Sc3ccc(NC(=O)C4CC4)cc3)n2)n[nH]1 [Tozasertib] (partner 0.1 µM)
In short: as §1

Masitinib + Alpelisib = compound: Cc1ccc(NC(=O)c2ccc(CN3CCN(C)CC3)cc2)cc1Nc1nc(-c2cccnc2)cs1 [Masitinib] + Cc1nc(NC(=O)N2CCC[C@H]2C(N)=O)sc1-c1ccnc(C(C)(C)C(F)(F)F)c1 [Alpelisib] (partner 2 µM)
In short: as §1

Masitinib + Olaparib = compound: Cc1ccc(NC(=O)c2ccc(CN3CCN(C)CC3)cc2)cc1Nc1nc(-c2cccnc2)cs1 [Masitinib] + O=C(c1cc(Cc2n[nH]c(=O)c3ccccc23)ccc1F)N1CCN(C(=O)C2CC2)CC1 [Olaparib] (partner 8 µM)
In short: as §1

Cell Line	relative viability ([1]; first compound 0.08 µM)	relative viability ([1]; first compound 0.253 µM)	relative viability ([1]; first compound 0.8 µM)	relative viability ([1]; first compound 2.53 µM)	relative viability ([1]; first compound 8 µM)	relative viability (Masitinib + Tozasertib; first compound 0.03162 µM)	relative viability (Masitinib + Tozasertib; first compound 0.1 µM)	relative viability (Masitinib + Tozasertib; first compound 0.3162 µM)	relative viability (Masitinib + Tozasertib; first compound 1 µM)	relative viability (Masitinib + Alpelisib; first compound 0.03162 µM)	relative viability (Masitinib + Alpelisib; first compound 0.1 µM)	relative viability (Masitinib + Alpelisib; first compound 0.3162 µM)	relative viability (Masitinib + Alpelisib; first compound 1 µM)	relative viability (Masitinib + Olaparib; first compound 0.01 µM)	relative viability (Masitinib + Olaparib; first compound 0.03162 µM)	relative viability (Masitinib + Olaparib; first compound 0.1 µM)	relative viability (Masitinib + Olaparib; first compound 0.3162 µM)	relative viability (Masitinib + Olaparib; first compound 1 µM)	relative viability (Masitinib + Tozasertib; first compound 0.01 µM)	relative viability (Masitinib + Alpelisib; first compound 0.01 µM)
NCI-H1755	1.01	1.04	0.843	0.902	0.707	0.573	0.57	0.57	0.454	0.847	1.01	0.972	0.833	0.769	0.832	0.893	0.849	0.755		
NCI-H1793		0.557	0.642	0.565	0.657	0.309	0.33	0.238	0.256	0.683	0.878	0.82	0.636	0.893	0.777	1.04	1.08	0.768	0.337	0.846
NCI-H1915	0.91	0.892	1.01	0.876	0.823	0.453		0.44	0.387	1.06	1.07	1.04	1.07		0.289		0.254	0.238		
NCI-H1944	0.707	0.783	0.812	0.626	0.613	0.214		0.205	0.247	0.78	0.925	0.699	0.84		0.344		0.364	0.374		
NCI-H1975	0.723	0.821	0.657	0.651	0.544	0.609	0.609		0.263	0.622	0.684	0.602	0.604	0.79	0.727	0.78	0.642	0.839	0.764	0.62
NCI-H1993	0.685	0.802	0.7	0.869	0.778	0.554	0.547	0.593	0.498		0.627	0.728	0.636	1.13	0.876	1.19	1.1	1.01	0.519	0.669
NCI-H2009	0.768	0.857	0.978	0.89	0.588	0.71	0.744	0.817	0.658	1.12	1.24	1.16	1.18	0.733	0.546	0.818	0.702	0.635	0.762	1.15
NCI-H2023	0.661	0.698	0.771	0.749	0.473	0.356	0.279	0.184	0.189	0.62	0.6	0.518	0.548	0.63	0.422	0.458	0.427	0.44	0.327	0.581
NCI-H2085	0.658	0.639	0.707	0.67	0.674	0.779	0.865	0.479	0.663	1	1.09	0.935	0.985	0.729	0.805	0.798	0.815	0.728	0.691	0.838
